Reference: patent US7615361B2, “Toxicity screening methods” (Ceetox, Inc., priority 2006, dated 2009)

Experiments:
rat cardiomyocytes = experiment: MemTox membrane leakage (AK / α-GST); assay type: cell-based; conditions: rat, 24 hr
Procedure, shortened: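 Neonatal rat cardiomyocytes were dosed, and the culture medium was collected at the end of exposure to measure total leaked adenylate kinase (luminescence) and/or α-GST (ELISA, 450/650 nm). Percent dead cells was set against 1 mM digitonin as maximum release, then converted to percent live. Values are means of n=3-7.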

H4IIE cells = experiment: MTT reduction; assay type: cell-based, rat; conditions: rat, 24 h
Procedure, shortened: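 Rat hepatoma H4IIE cells exposed to compound prepared in complete culture medium, with tetrazolium dye (MTT) reduction used as a mitochondrial-function read-out of cytotoxicity. Values are means of each exposure group (n=3-7).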

[1] = system: H4IIE tumor cells, NRK cells, rat primary hepatocytes; experiment: Anti-tumor screen in three rat cell types; assay type: cell-based
From the text: In the Anti-tumor screen of the present invention, at least three different cell types are utilized: (1) tumor derived cells, (2) proliferating cells from normal tissue, and (3) non-proliferating cells from normal tissue. The evaluation of anti-tumor agents in multiple cell types provides information on mechanism-based toxicity versus efficacy.
The anti-tumor agent can be evaluated in a toxicity screen of key biochemical functions (as described in detail herein above), with emphasis placed on cell proliferation assays as well as biochemical function and cell viability. Comparisons can then be made to quantitative markers in the concentration response curves constructed with the toxicity data.
It is hypothesized to act through mitochondrial toxicity as well as apoptosis.

[2] = MemTox membrane leakage (AK / α-GST); assay type: cell-based; conditions: human, HUVEC, read-out: MemTox TC50
Experimental: Membrane Leakage (α-Glutathione S-transferase and/or Adenylate Kinase): The presence of Adenylate Kinase (AK) or α-Glutathione S-transferase (α-GST), both enzyme leakage markers, was measured in the culture medium using an activity assay for Adenylate Kinase and/or an ELISA assay for α-GST. At the end of the exposure period, the medium covering the cells in each well was removed and placed into new 96-well plates with appropriate labeling. […] Luminescence (AK) values were measured with a Packard Fusion or equivalent plate reader, and absorbance (α-GST) values were measured with a Packard SpectraCount™ or equivalent reader at 450 nm and reference absorbance at 650 nm.
Membrane Leakage (α-Glutathione S-transferase and/or Adenylate Kinase): Leakage of Adenylate Kinase or α-GST from the cell into the culture medium was determined by collecting the culture medium at the end of the exposure period. Thus, the values measured represent total enzyme leakage lost over the exposure period. The control for 100% dead or maximum enzyme release was based on cells treated with 1 mM digitonin at the time of dosing. Percent dead cells relative to digitonin treated cells was determined and then subtracted from 100% to yield the percent live cells.
(§1) Dosing solutions were prepared in complete culture medium.

C32 cells [3] = experiment: Predicted Ctox from Tox-Panel; assay type: cell-based, human; conditions: C32, 24 HR
Experimental: Studies such as these indicate that a preferred concentration for setting Ctox is the highest concentration at which there is no observed effect on any of the indicators being measured in the cluster analysis, especially a 24-hour cluster analysis. […] It will be apparent that 24 hour assays are more time-effective, and consequently, the 24 hour NOEL/Ctox represents a preferred data point to select as Ctox in a CATS assay. It will also be apparent that, with further time studies, it may be possible to select an equally suitable Ctox at other CATS assay time points (e.g., between 24 and 72 hours, or less than 24 hours).
In certain embodiments, the predicting comprises performing concentration response analyses of measurements from at least three separate assays that are employed in the cluster analysis. For example, in the cell health cluster, such predicting will involve monitoring the concentration response effect of the compound on a first health indicator which monitors cellular replication, a second cell health indicator which monitors mitochondrial function, and a third cell health indicator which monitors membrane integrity. Of course, it is understood that fourth, fifth, sixth or more cell health indicators also may be employed. From these concentration response analyses, the highest concentration of the chemical compound at which a measurable toxic effect of the chemical compound is not observable, i.e. NOEL, is determined and the Ctox is identified as the concentration that correlates to the NOEL. In choosing the concentrations of the compound for analysis, one of skill in the art should devise a dose response regimen which is selected to provide an indication of cell health at concentrations of at least two concentration values higher than the Ctox concentration.
The results are summarized in Tables 14-17 and in FIGS. 83-102. Table 14 compares the test compound TC50 values for each assay endpoint. Test compounds are rank-ordered from most to least toxic based on their TC50 values and overall shape of the response curves. The Ctox value, or estimated sustained blood concentration where toxicity would first be expected to occur in a rat 14-day repeated dose study, is also included in this table. Negative and positive controls are included with every run. Assay response is continually monitored to assure reliable results. […] Table 15 summarizes oxidative stress and apoptosis data, Table 16 summarizes the solubility data, and Table 17 provides information on interaction with PgP.
The Ctox value was developed using 24 hr in vitro (H4IIE) toxicity data and was validated by retrospectively evaluating compounds across different classes of drugs in 14-day rat studies in which compounds were administered on a daily basis and pharmacokinetic data was available. […] Thus, Ctox values are only determined for the 24 hr in vitro results. In this example, Ctox values could not be estimated due to low toxicity in most of the cell lines.

C32 cells [4] = experiment: Caspase 3 activity (apoptosis); assay type: cell-based, human; conditions: C32, 24 HR
Experimental: (§2) Caspase 3 Procedure: Caspase 3 activity was determined using a caspase substrate (DEVD, Asp-Glu-Val-Asp) labeled with a fluorescent molecule, 7-Amino4-methylcoumarin (AMC). Caspase 3 cleaves the tetrapeptide between D and AMC, thus releasing the fluorogenic […] AMC. Following the test article exposure to cells in 96-well plates, medium was aspirated from plates and PBS added to each well. Plates were stored at −80° C. to lyse cells and store samples until further analysis. On the day of analysis, plates were removed from freezer and thawed. Caspase buffer with fluorescent substrate was added to each well and incubated at room temperature for 1 hr. AMC release was measured in a spectrofluorometer at an excitation wavelength of 360 nm and an emission wavelength of 460 nm. Values are expressed as relative fluorescent units (RFU).
(§3) Caspase Activity: After sample plates were completely thawed, the caspase substrate buffer mix was added to each plate. Plates were incubated at room temperature for 1hr, shielded from light. Plates were read using a in a spectrofluorometer at an excitation wavelength of 360 nm and an emission wavelength of 460 nm. Values were expressed as relative fluorescent units (RFU).
(§4) The key to the maximal response data can be found below Table 2.
as §1

HUVEC = experiment: Caspase 3 activity (apoptosis); assay type: cell-based, human; conditions: 24 HR
Experimental: as §2, §3, §4, §1

NHEM cells = experiment: Caspase 3 activity (apoptosis); assay type: cell-based, human; conditions: 24 HR
Experimental: as §2, §3, §4, §1

SK-MEL28 cells = experiment: Caspase 3 activity (apoptosis); assay type: cell-based, human
Experimental: as §2, §3, §4, §1

| SMILES | more potent in the heart cells than in liver cells (cell death as marker) (rat cardiomyocytes) | CC50 (H4IIE cells) | MTT affected less in liver cells compared to myocytes (H4IIE cells) | sensitivity of cell types in the anti-tumor screen [1] | CC50 at 24 h [2] | Predicted Ctox (C32 cells [3]) | Caspase 3 Activity (Index/Dose): Index (C32 cells [4]) | Caspase 3 Activity (Index/Dose): Dose (C32 cells [4]; controls (μM section)) | Caspase 3 Activity (Index/Dose): Index (HUVEC) | Caspase 3 Activity (Index/Dose): Dose (HUVEC; controls (μM section)) | Caspase 3 Activity (Index/Dose): Index (NHEM cells) | Caspase 3 Activity (Index/Dose): Dose (NHEM cells; controls (μM section)) | Caspase 3 Activity (Index/Dose): Index (SK-MEL28 cells; SK-MEL28, 24 HR) | Caspase 3 Activity (Index/Dose): Index (SK-MEL28 cells; SK-MEL28, 24 HR, COMP A (LOW) / controls #2) | Caspase 3 Activity (Index/Dose): Dose (SK-MEL28 cells; SK-MEL28, 24 HR, run #2, controls (μM section)) | Caspase 3 Activity (Index/Dose): Dose (SK-MEL28 cells; SK-MEL28, 24 HR, controls (μM section of table)) | Caspase 3 Activity (Index/Dose): Index (SK-MEL28 cells; SK-MEL28, 72 HR, COMP A (LOW) / controls #2) | Caspase 3 Activity (Index/Dose): Dose (SK-MEL28 cells; SK-MEL28, 72 HR, run #2, controls (μM section)) |
| --- | --- | --- | --- | --- | --- | --- | --- | --- | --- | --- | --- | --- | --- | --- | --- | --- | --- | --- |
| COc1cccc2c1C(=O)c1c(O)c3c(c(O)c1C2=O)C[C@@](O)(C(=O)CO)C[C@@H]3O[C@H]1C[C@H](N)[C@H](O)[C@H](C)O1 [ADRIAMYCIN, Adriamycin] | about 2.5 fold | 26 µM | approximately 13 fold | toxic to all of the cells tested | – | – | – | – | – | – | – | – | – | – | – | – | – | – |
| CC[C@@]1(O)C(=O)OCc2c1cc1n(c2=O)Cc2cc3ccccc3nc2-1 [CAMPTOTHECIN, Camptothecin] | – | – | – | – | 13 µM | 0.1 µM | 4 (600-800 = 4) | 300 | 1 (0-200 = 1) | 300 | 3 (400-600 = 3) | 300 | 3 (400-600 = 3) | 3 (400-600 = 3) | 100 | 300 | 3 (400-600 = 3) | 100 |
